Results reported in article PMC4492107 (Science signaling, 2015).

Biological target: T1, tcTERT (Tribolium castaneum TERT) (Tribolium castaneum, UniProt Q0QHL8)
T1 sequence (Q0QHL8 1-596): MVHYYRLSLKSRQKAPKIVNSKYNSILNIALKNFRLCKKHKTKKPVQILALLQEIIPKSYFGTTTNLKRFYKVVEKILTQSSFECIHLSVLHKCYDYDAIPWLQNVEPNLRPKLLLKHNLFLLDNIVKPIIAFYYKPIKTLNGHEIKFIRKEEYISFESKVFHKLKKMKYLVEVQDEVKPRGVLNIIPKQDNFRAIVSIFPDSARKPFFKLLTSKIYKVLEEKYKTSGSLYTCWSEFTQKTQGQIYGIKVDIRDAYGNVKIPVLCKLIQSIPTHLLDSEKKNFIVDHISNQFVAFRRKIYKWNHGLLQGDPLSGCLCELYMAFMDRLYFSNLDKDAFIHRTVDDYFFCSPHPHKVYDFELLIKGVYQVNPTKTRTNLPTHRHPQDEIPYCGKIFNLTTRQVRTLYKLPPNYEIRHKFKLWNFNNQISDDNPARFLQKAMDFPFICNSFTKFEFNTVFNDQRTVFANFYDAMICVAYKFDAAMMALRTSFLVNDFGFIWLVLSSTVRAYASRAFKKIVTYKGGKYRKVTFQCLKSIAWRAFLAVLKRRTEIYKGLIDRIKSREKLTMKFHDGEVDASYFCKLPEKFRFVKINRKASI
Assay: SPR with POPC:POPE:S1P
Format: binding

Compound `CCCCCCCCCCCCC/C=C/[C@@H](O)[C@@H](N)COP(=O)(O)O` [S1P, sphingosine 1-phosphate] has a Kd of about 4.8 µM.
